Assays:
PFSK-1 = experiment: MTT cell proliferation assay, PFSK-1; type: cell-based; settings: Homo sapiens, PFSK-1, 72 h, concentration reducing cell growth by 50% after 72 hours, 1% DMSO
Description: (§1) The antitumor activities of the compounds of the invention were evaluated by a cellular proliferation assay. […] The cleavage reaction form a purple formazan crystals which is largely impermeable to cell membranes resulting in its accumulation within healthy cells. Solubilisation of the cells by addition of a detergent liberates and solubilizes the formazan crystals. The number of surviving cells is directly proportional to the level of the formazan product created. The color can then be quantified spectrophotometrically. The production of purple formazan in cells treated with a compound is measured relative to the production in control cells, and dose-response curves can be generated. This assay measures the cell proliferation rate and conversely, when metabolic events lead to apoptosis or necrosis, the reduction in cell viability, thus also allowing the evaluation of the cytotoxicity of the analogues synthesized in the laboratory.
(§2) For Tables 3 and 4, the assays were performed with 1% DMSO. The abbreviation “n.d.” means “not determined.” The values EC50, CC50, and SI have the following definitions.
(§3) Cell growth equals total cell count without any inhibitor after 72 hours minus initial cell count.
(§4) SI: Selectivity Index is the ratio CC50/EC50.

[1] = MTT cell proliferation assay, PFSK-1; type: cell-based; settings: human, PFSK-1 cells, concentration causing 50% cell death of initial cell count over 24 hours, 1% DMSO
Description: as §1, §2, §3, §4

[2] = target: Thermotoga maritima thymidine kinase (Thermotoga maritima, UniProt Q9WYN2); experiment: Phosphorylation assay (spectrophotometric coupled-enzyme), T. maritima TK; type: biochemical; settings: substrate at 100 μM, 37° C., 1 mM ATP, triplicate
Description: Compounds of the invention were also tested in a phosphorylation assay using three deoxynucleoside kinases. The kinases include human dCK, which is responsible for the activation of numerous nucleoside analog prodrugs; Drosophila melanogaster dNK, which is the fastest known kinases with the broadest substrate specificity profile; and Thermotoga maritima thymidine kinase, which is a good surrogate for human thymidine kinase 1, a member of the distinct type II kinase subfamily. The compounds were at substrate concentration of 100 μM.
(§5) Kinetic assay. Substrate phosphorylation was determined using a spectrophotometric coupled-enzyme assay (Munch-Petersen et al. (2000) J. Biol. Chem. vol. 275p. 66′73-66′79; Schelling et al. (2001) Anal. Biochem vol. 295 p. 82-8′7). Briefly, the individual nucleosides at 100 μM were prepared in reaction buffer containing 50 mM Tris-HCl (pH 7.5), 0.1 M KCl, 5 mM MgCl2, 1 mM DTT, 1 mM ATP, 0.21 mM phosphoenolpyruvate, 0.18 mM NADH, and 2 units/ml pyruvate kinase and 2 units/ml lactate dehydrogenase (Roche Biochemicals, Indianapolis, Ind.). Assays were performed at 37° C. by measuring the absorbance change at 340 nm. The enzyme amount was adjusted to limit NADH turnover to 10% over the time of the experiment. All experiments were performed in triplicate.

in vitro [3] = settings: human, NCI H1395 cells
ZR-75-1 = experiment: MTT cell proliferation assay, ZR-75-1; type: cell-based; settings: Homo sapiens, ZR-75-1, 72 h, concentration reducing cell growth by 50% after 72 hours, 1% DMSO
Description: (§6) The antitumor activities of the compounds of the invention were evaluated by a cellular proliferation assay. The MTT [3-(4,5-dimethylthiazol-2-yl)-2,5-diphenyltetrazolium bromide] cell proliferation assay, first described by Mosmann (Mosmann T., “Rapid colorimetric assay for cellular growth and survival: application to proliferation and cytotoxicity assays,” J. Immunol. Methods 1983 Dec. 16; 65(1-2):55-63, and incorporated by reference in its entirety) is based on the ability of active mitochondrial reductase enzymes from viable cells to cleave the tetrazolium rings of the pale yellow MTT. The cleavage reaction form a purple formazan crystals which is largely impermeable to cell membranes resulting in its accumulation within healthy cells. Solubilisation of the cells by addition of a detergent liberates and solubilizes the formazan crystals. The number of surviving cells is directly proportional to the level of the formazan product created. The color can then be quantified spectrophotometrically. The production of purple formazan in cells treated with a compound is measured relative to the production in control cells, and dose-response curves can be generated. This assay measures the cell proliferation rate and conversely, when metabolic events lead to apoptosis or necrosis, the reduction in cell viability, thus also allowing the evaluation of the cytotoxicity of the analogues synthesized in the laboratory.
as §2
(§7) Cell growth equals total cell count without any inhibitor after 72 hours minus initial cell count. Total cell counts after 72 hrs of growth range from 230 to 346% of initial cell counts depending on the cell line.
(§8) Total cell counts after 24 hrs of growth range from 103 to 109% of initial cell counts depending on the cell line.
as §4

[4] = MTT cell proliferation assay, ZR-75-1; type: cell-based; settings: human, ZR-75-1 cells, concentration causing 50% cell death of initial cell count over 24 hours, 1% DMSO
Description: as §6, §2, §7, §8, §4

in vitro [5] = settings: human, NCI H2052 cells
[6] = target: T1, Drosophila melanogaster dNK (Drosophila melanogaster, UniProt Q9XZT6); experiment: Phosphorylation assay (spectrophotometric coupled-enzyme), D. melanogaster dNK; type: biochemical; settings: substrate at 100 μM, 37° C., 1 mM ATP, triplicate
T1 sequence (Q9XZT6 1-250): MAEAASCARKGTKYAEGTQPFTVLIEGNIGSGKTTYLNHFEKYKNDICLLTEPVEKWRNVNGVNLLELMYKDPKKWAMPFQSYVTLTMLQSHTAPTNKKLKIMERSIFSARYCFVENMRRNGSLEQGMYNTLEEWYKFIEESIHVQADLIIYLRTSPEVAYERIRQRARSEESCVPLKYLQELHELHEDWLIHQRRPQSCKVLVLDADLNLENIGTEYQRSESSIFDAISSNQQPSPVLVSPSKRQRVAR
Description: Compounds of the invention were also tested in a phosphorylation assay using three deoxynucleoside kinases. […] The compounds were at substrate concentration of 100 μM.
as §5, with “Substrate phosphorylation was determined using a spectrophotometric coupled-enzyme assay (Munch-Petersen et al. (2000) J. Biol. Chem. vol. 275p. 66′73-66′79; Schelling et al. (2001) Anal. Biochem vol. 295 p. 82-8′7).” left out

in vitro [7] = settings: human, MOLT-4 cells

Sequence of Thermotoga maritima thymidine kinase (Q9WYN2 whole entry): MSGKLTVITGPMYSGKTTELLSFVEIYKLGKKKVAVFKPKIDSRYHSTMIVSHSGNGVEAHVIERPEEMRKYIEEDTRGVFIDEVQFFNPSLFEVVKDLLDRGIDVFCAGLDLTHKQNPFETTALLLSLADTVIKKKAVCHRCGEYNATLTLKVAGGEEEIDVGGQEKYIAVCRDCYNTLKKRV

SMILES | EC50 (PFSK-1) | CC50 at 24 h [1] | T. maritima TK substrate phosphorylation [2] | CC50 at 24 h (in vitro [3]) | EC50 (ZR-75-1) | CC50 at 24 h [4] | CC50 at 24 h (in vitro [5]) | D. melanogaster dNK substrate phosphorylation [6] | T. maritima TK substrate phosphorylation ([2]; listed as LCB-1022-1) | CC50 at 24 h (in vitro [7]) | D. melanogaster dNK substrate phosphorylation ([6]; listed as LCB-1022-1) | D. melanogaster dNK substrate phosphorylation ([6]; listed as LCB-1007-1) | T. maritima TK substrate phosphorylation ([2]; listed as LCB-1004-1) | D. melanogaster dNK substrate phosphorylation ([6]; listed as LCB-1004-1)
COC(=O)C1(C)C[C@@H](n2ccc(=O)[nH]c2=O)O[C@@H]1CO (mixture of isomers) [LCB-1002] | > 500 µM | > 500 µM | 2.2 10^−3 μmol/min mg | 493 µM | > 500 µM | > 500 µM | 423 µM | <0.1 10^6 μmol/min mg |  |  |  |  |  | 
CC1(CO)C[C@@H](n2ccc(=O)[nH]c2=O)O[C@@H]1CO (mixture of isomers) [LCB-1008] | > 500 µM | > 500 µM | <1 10^−3 μmol/min mg | > 500 µM | > 500 µM | > 500 µM | > 500 µM | 0.36 10^6 μmol/min mg |  |  |  |  |  | 
COC(=O)C1(C)C[C@H](n2cc(F)c(=O)[nH]c2=O)O[C@@H]1CO (mixture of isomers) [LCB-1022, 5-(5-Fluoro-2,4-dioxo-3,4-dihydro-2H-pyrimidin-1-yl)-2-hydroxymethyl-3-methyl-tetrahydro-furan-3-carboxylic acid methyl ester] |  |  |  |  |  |  |  |  | 3 10^−3 μmol/min mg | > 500 µM | 1.88 10^6 μmol/min mg |  |  | 
Cc1cn([C@H]2CC(C)(CO)[C@@H](CO)O2)c(=O)[nH]c1=O (mixture of isomers) [LCB-1032, (±) 1-(-4,5-bis(hydroxymethyl)-4-methyltetrahydrofuran-2-yl)-5-methylpyrimidine-2,4(1H,3H)-dione] |  |  |  |  |  |  |  |  |  | > 500 µM |  |  |  | 
CC1(C(N)=O)CC(n2cc(F)c(N)nc2=O)O[C@@H]1CO (mixture of isomers) [LCB-1030] | > 500 µM | > 500 µM |  | > 500 µM | > 500 µM | > 500 µM | > 500 µM |  |  | > 500 µM |  |  |  | 
CCOC(=O)[C@@H]1O[C@H](n2cc(C)c(=O)[nH]c2=O)CC1(C)C(=O)OCC (stereo partly drawn) [LCB-1019, (2R,5S)-diethyl 3-methyl-5-(5-methyl-2,4-dioxo-3,4-dihydropyrimidin-1(2H)-yl)tetrahydrofuran-2,3-dicarboxylate] | > 460 µM | > 460 µM | 6.1 10^−3 μmol/min mg | > 460 µM | > 460 µM | > 460 µM | > 460 µM | <0.1 10^6 μmol/min mg |  | > 460 µM |  |  |  | 
C[C@@]12CC(n3cc(F)c(N)nc3=O)O[C@@H]1COC2=O (mixture of isomers) [LCB-1028] | > 500 µM | > 500 µM |  | > 500 µM | > 500 µM | > 500 µM | > 500 µM |  |  | > 500 µM |  |  |  | 
C[C@@]12CC(n3ccc(N)nc3=O)O[C@@H]1COC2=O (mixture of isomers) [LCB-1029] | > 500 µM | > 500 µM |  | > 500 µM | > 500 µM | > 500 µM | > 500 µM |  |  | > 500 µM |  |  |  | 
CC1(CO)C[C@H](n2ccc(=O)[nH]c2=O)O[C@@H]1CO (mixture of isomers) [LCB-1006] | > 500 µM | > 500 µM | 2.7 10^−3 μmol/min mg | > 500 µM | > 500 µM | > 500 µM | > 500 µM | 0.22 10^6 μmol/min mg |  |  |  |  |  | 
Cc1cn([C@H]2CC(C)(CO)[C@@H](CO)O2)c(=O)[nH]c1=O (mixture of isomers) [LCB-1007] | > 500 µM | > 500 µM | 2.2 10^−3 μmol/min mg | > 500 µM | 460 µM | > 500 µM | > 500 µM |  |  |  |  | 0.84 10^6 μmol/min mg |  | 
COC(=O)C1(C)C[C@@H](n2cc(C)c(=O)[nH]c2=O)O[C@@H]1CO (mixture of isomers) [LCB-1001] | > 500 µM | > 500 µM | <1 10^−3 μmol/min mg | > 500 µM | > 500 µM | > 500 µM | 295 µM | <0.1 10^6 μmol/min mg |  |  |  |  |  | 
Cc1cc(=O)[nH]c(=O)n1[C@H]1CC2(C)C(=O)OC[C@H]2O1 (single isomer, unassigned) [LCB-1020, 6-Methyl-1-(3a-methyl-4-oxo-hexahydro-furo[3,4-b]furan-2-yl)-1H-pyrimidine-2,4-dione] | > 500 µM | > 500 µM | <1 10^−3 μmol/min mg | > 500 µM | > 500 µM | > 500 µM | > 500 µM | <0.1 10^6 μmol/min mg |  | > 500 µM |  |  |  | 
COC(=O)C1(C)C[C@H](n2ccc(=O)[nH]c2=O)O[C@@H]1CO (mixture of isomers) [LCB-1005] | > 500 µM | > 500 µM | <1 10^−3 μmol/min mg | > 500 µM | > 500 µM | > 500 µM | > 500 µM | <0.1 10^6 μmol/min mg |  |  |  |  |  | 
Cc1cn([C@@H]2CC(C)(CO)[C@@H](CO)O2)c(=O)[nH]c1=O (mixture of isomers) [LCB-1004] | > 500 µM | > 500 µM |  | > 500 µM | 420 µM | > 500 µM | > 500 µM |  |  |  |  |  | 4.1 10^−3 μmol/min mg | 4.2 10^6 μmol/min mg
